Columns and labels:
Format in all cases: in vivo
[1] = system: Yellow Fever Mosquito (Aedes aegypti, AEDSAE); settings: about 1 day-old larvae, 3 days, room temperature, scored on mortality
Experimental: Example C: Bioassays on Yellow Fever Mosqurro (Aedes aegypti, AEDSAE) (“YFM”)
Certain molecules disclosed in this document were tested against YFM using procedures described in the following paragraph. In the reporting of the results, the “GPA & YFM Rating Table” was used (See Table Section).
Master plates containing 400 μg of a molecule dissolved in 100 μL of dimethyl sulfoxide (DMSO) (equivalent to a 4000 ppm solution) are used. A master plate of assembled molecules contains 15 μL per well. To this plate, 135 μL of a 90:10 water:acetone mixture is added to each well. A robot (Biomek® NXP Laboratory Automation Workstation) is programmed to dispense 15 μL aspirations from the master plate into an empty 96-well shallow plate (“daughter” plate). There are 6 reps (“daughter” plates) created per master. The created daughter plates are then immediately infested with YFM larvae.
The day before plates are to be treated, mosquito eggs are placed in Millipore water containing liver powder to begin hatching (4 g. into 400 mL). After the daughter plates are created using the robot, they are infested with 220 μL of the liver powder/larval mosquito mixture (about 1 day-old larvae). After plates are infested with mosquito larvae, a non-evaporative lid is used to cover the plate to reduce drying. Plates are held at room temperature for 3 days prior to grading. After 3 days, each well is observed and scored based on mortality. The results are indicated in the table entitled “Table ABC: Biological Results” (See Table Section).

[2] = system: Beet Armyworm (Spodoptera exigua, LAPHEG); assay: Bioassay on Beet Armyworm (BAW), 128-well diet tray assay; settings: 168 h, 50 μg/cm^2 on artificial diet, second instar larvae, five to seven days, 25° C., read-out: BAW % Control (or Mortality) rating
Procedure, shortened: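 Mortality of second-instar larvae (one to five per well) was scored after five to seven days at 25 °C under 14:10 light-dark and averaged across eight wells. Each well's diet had received 50 μg/cm^2 test molecule from a 90:10 acetone-water solution, allowed to dry before infestation.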

[3] = system: Cabbage Looper (Trichoplusia ni, TRIPNI); assay: Bioassay on Cabbage Looper (CL), 128-well diet tray assay; settings: 168 h, 50 μg/cm^2 on artificial diet, second instar larvae, five to seven days, 25° C., read-out: CL % Control (or Mortality) rating
Procedure, shortened: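 Percent mortality, averaged over eight wells, scored after five to seven days at 25° C. under 14:10 light-dark. Each well held 1–5 second-instar larvae on artificial diet treated with 50 μg/cm^2 test molecule applied in 90:10 acetone-water and dried.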

Row | Structure (SMILES) | YFM % Control (or Mortality) rating [1] | mortality at 50 µg/cm2 [2] [%] | mortality at 50 µg/cm2 [3] [%]
1 | C[C@H](CS(=O)(=O)CC(F)(F)F)NC(=O)c1ccc(/C(F)=C/C(c2ccc(C(F)(F)F)c(Cl)c2)C(F)(F)F)cc1C(F)(F)F (stereo partly drawn) [F91] | D (No activity noticed in this bioassay) | 50 to 100 | 50 to 100
2 | C[C@H](CSCC(F)(F)F)NC(=O)c1ccc(/C(F)=C/C(c2ccc(F)c(C(F)(F)F)c2)C(F)(F)F)cc1C(F)(F)F (stereo partly drawn) [F102, 4-((Z)-1,4,4,4-Tetrafluoro-3-(4-fluoro-3-(trifluoromethyl)phenyl)but-1-en-1-yl)-N—((R)-1-((2,2,2-trifluoroethyl)thio)propan-2-yl)-2-(trifluoromethyl)benzamide] | A (80-100) | 50 to 100 | 50 to 100
3 | C[C@H](C[S+]([O-])CCF)NC(=O)c1ccc(/C(F)=C/C(c2cc(Cl)c(Cl)c(Cl)c2)C(F)(F)F)cc1C(F)(F)F (stereo partly drawn) [F99, N-((2R)-1-((2-Fluoroethyl)sulfinyl)propan-2-yl)-4-((Z)-1,4,4,4-tetrafluoro-3-(3,4,5-trichlorophenyl)but-1-en-1-yl)-2-(trifluoromethyl)benzamide] | A (80-100) | 50 to 100 | 50 to 100
4 | C[C@H](CS(=O)(=O)CC(F)(F)F)NC(=O)c1ccc(/C(F)=C/C(c2ccc(C(F)(F)F)c(Br)c2)C(F)(F)F)cc1C(F)(F)F (stereo partly drawn) [F95, 4-((Z)-3-(3-Bromo-4-(trifluoromethyl)phenyl)-1,4,4,4-tetrafluorobut-1-en-1-yl)-N—((R)-1-((2,2,2-trifluoroethyl)sulfonyl)propan-2-yl)-2-(trifluoromethyl)benzamide] | A (80-100) | 50 to 100 | 50 to 100
5 | C[C@H](C[S+]([O-])CC(F)(F)F)NC(=O)c1ccc(/C(F)=C/C(c2cc(Cl)cc(Cl)c2)C(F)(F)F)cc1C(F)(F)F (stereo partly drawn) [F27, 4-((Z)-3-(3,5-Dichlorophenyl)-1,4,4,4-tetrafluorobut-1-en-1-yl)-N-((2R)-1-((2,2,2-trifluoroethyl)sulfinyl)propan-2-yl)-2-(trifluoromethyl)benzamide] | A (80-100) | 50 to 100 | 50 to 100
6 | C[C@H](CS(=O)(=O)CC(F)(F)F)NC(=O)c1ccc(/C(F)=C/C(c2cc(Cl)c(Cl)c(Cl)c2)C(F)(F)F)c2ccccc12 (stereo partly drawn) [PF1, 4-((Z)-1,4,4,4-Tetrafluoro-3-(3,4,5-trichlorophenyl)but-1-en-1-yl)-N—((R)-1-((2,2,2-trifluoroethyl)sulfonyl)propan-2-yl)-1-naphthamide] | A (80-100) | 50 to 100 | 50 to 100
7 | CCS(=O)(=O)C[C@@H](C)NC(=O)c1ccc(/C(F)=C/C(c2cc(C)c(Cl)c(C)c2)C(F)(F)F)cc1C(F)(F)F (stereo partly drawn) [F53, 4-((Z)-3-(4-Chloro-3,5-dimethylphenyl)-1,4,4,4-tetrafluorobut-1-en-1-yl)-N—((R)-1-(ethylsulfonyl)propan-2-yl)-2-(trifluoromethyl)benzamide] | D (No activity noticed in this bioassay) | 50 to 100 | 50 to 100
8 | C=Cc1c(Cl)cc(C(/C=C(\F)c2ccc(C(=O)N[C@H](C)C[S+]([O-])CC(F)(F)F)c(C(F)(F)F)c2)C(F)(F)F)cc1Cl (stereo partly drawn) [F34, 4-((Z)-3-(3,5-Dichloro-4-vinylphenyl)-1,4,4,4-tetrafluorobut-1-en-1-yl)-N-((2R)-1-((2,2,2-trifluoroethyl)sulfinyl)propan-2-yl)-2-(trifluoromethyl)benzamide] | A (80-100) | 50 to 100 | 50 to 100
9 | C[C@H](C[S+]([O-])CC(F)(F)F)NC(=O)c1ccc(/C(F)=C/C(c2cc(Cl)c(F)c(Cl)c2)C(F)(F)F)cc1C(F)(F)F (stereo partly drawn) [F37, 4-((Z)-3-(3,5-Dichloro-4-fluorophenyl)-1,4,4,4-tetrafluorobut-1-en-1-yl)-N-((2R)-1-((2,2,2-trifluoroethyl)sulfinyl)propan-2-yl)-2-(trifluoromethyl)benzamide] | A (80-100) | 50 to 100 | 50 to 100
10 | C[C@H](CSCC(F)(F)F)NC(=O)c1ccc(/C(F)=C/C(c2cc(Cl)c(F)c(Cl)c2)C(F)(F)F)cc1C(F)(F)F (stereo partly drawn) [F36, 4-((Z)-3-(3,5-Dichloro-4-fluorophenyl)-1,4,4,4-tetrafluorobut-1-en-1-yl)-N—((R)-1-((2,2,2-trifluoroethyl)thio)propan-2-yl)-2-(trifluoromethyl)benzamide] | A (80-100) | 50 to 100 | 50 to 100
11 | CC[S+]([O-])C[C@@H](C)NC(=O)c1ccc(/C(F)=C/C(c2cc(C)c(Cl)c(C)c2)C(F)(F)F)cc1C(F)(F)F (stereo partly drawn) [F44, 4-((Z)-3-(4-Chloro-3,5-dimethylphenyl)-1,4,4,4-tetrafluorobut-1-en-1-yl)-N-((2R)-1-(ethylsulfinyl)propan-2-yl)-2-(trifluoromethyl)benzamide] | A (80-100) | 50 to 100 | 50 to 100
12 | Cc1cc(C(/C=C(\F)c2ccc(C(=O)N[C@H](C)CSCC(F)(F)F)c(C(F)(F)F)c2)C(F)(F)F)cc(C)c1Cl (stereo partly drawn) [F52, 4-((Z)-3-(4-Chloro-3,5-dimethylphenyl)-1,4,4,4-tetrafluorobut-1-en-1-yl)-N—((R)-1-((2,2,2-trifluoroethyl)thio)propan-2-yl)-2-(trifluoromethyl)benzamide] | D (No activity noticed in this bioassay) | 50 to 100 | 50 to 100
13 | CCc1ccc(C(/C=C(\F)c2ccc(C(=O)N[C@H](C)CS(=O)(=O)CC(F)(F)F)c(C(F)(F)F)c2)C(F)(F)F)cc1Cl (stereo partly drawn) [F141, 4-((Z)-3-(3-Chloro-4-ethylphenyl)-1,4,4,4-tetrafluorobut-1-en-1-yl)-N—((R)-1-((2,2,2-trifluoroethyl)sulfonyl)propan-2-yl)-2-(trifluoromethyl)benzamide] | D (No activity noticed in this bioassay) | 50 to 100 | 50 to 100
14 | C[C@H](CS(=O)(=O)CC(F)(F)F)NC(=O)c1ccc(/C(F)=C/C(c2ccc(Br)c(Br)c2)C(F)(F)F)cc1C(F)(F)F (stereo partly drawn) [F54, 4-((Z)-3-(3,4-Dibromophenyl)-1,4,4,4-tetrafluorobut-1-en-1-yl)-N—((R)-1-((2,2,2-trifluoroethyl)sulfonyl)propan-2-yl)-2-(trifluoromethyl)benzamide] | A (80-100) | 50 to 100 | 50 to 100
15 | CCC(F)(F)c1cc(Cl)cc(C(/C=C(\F)c2ccc(C(=O)N[C@H](C)CS(=O)(=O)CC(F)(F)F)c(C(F)(F)F)c2)C(F)(F)F)c1 (stereo partly drawn) [F131, 4-((Z)-3-(3-Chloro-5-(1,1-difluoropropyl)phenyl)-1,4,4,4-tetrafluorobut-1-en-1-yl)-N—((R)-1-((2,2,2-trifluoroethyl)sulfonyl)propan-2-yl)-2-(trifluoromethyl)benzamide] | A (80-100) | 50 to 100 | 50 to 100
16 | C[C@H](CS(=O)(=O)CC(F)(F)F)NC(=O)c1ccc(/C(F)=C/C(c2cc(Cl)c(F)c(Cl)c2)C(F)(F)F)cc1C(F)(F)F (stereo partly drawn) [F29, 4-((Z)-3-(3,5-Dichloro-4-fluorophenyl)-1,4,4,4-tetrafluorobut-1-en-1-yl)-N—((R)-1-((2,2,2-trifluoroethyl)sulfonyl)propan-2-yl)-2-(trifluoromethyl)benzamide] | A (80-100) | 50 to 100 | 50 to 100
17 | C[C@H](CS(=O)(=O)CCC(F)(F)F)NC(=O)c1ccc(/C(F)=C/C(c2cc(Cl)c(Cl)c(Cl)c2)C(F)(F)F)cc1C(F)(F)F (stereo partly drawn) [F130, 4-((Z)-1,4,4,4-tetrafluoro-3-(3,4,5-trichlorophenyl)but-1-en-1-yl)-2-(trifluoromethyl)-N—((R)-1-((3,3,3-trifluoropropyl)sulfonyl)propan-2-yl)benzamide] | B (More than 0-Less than 80) | 50 to 100 | 50 to 100
18 | Cc1cc(C(/C=C(\F)c2ccc(C(=O)N[C@H](C)CS(=O)(=O)CC(F)(F)F)c(C(F)(F)F)c2)C(F)(F)F)cc(C)c1Cl (stereo partly drawn) [F35, 4-((Z)-3-(4-Chloro-3,5-dimethylphenyl)-1,4,4,4-tetrafluorobut-1-en-1-yl)-N—((R)-1-((2,2,2-trifluoroethyl)sulfonyl)propan-2-yl)-2-(trifluoromethyl)benzamide] | A (80-100) | 50 to 100 | 50 to 100
